Entries after “also recorded” stand apart in the source; their conditions may differ.
Legend:
[1] = test system: vitelline capillaries of chick embryo; assay: chick embryo vitelline capillary regression assay; type: in vivo; parameters: key to vitelline capillary regression: +: Vascular reactivity; 0: No vascular reactivity; +/-: Equivocal reactivity; settings: for Chick embryo diss. assay, Minimum Effective Concentration: Table II; for effect on vitelline capillaries / chick embryo: in vivo
Protocol: Using the chick embryo vitelline capillaries assay, compounds were tested for their ability to induce capillary regression. Each compound was applied in 0.1 ml of 15% Ficol 400 and PBS onto the embryo, and vascular regression was assessed after 60 minutes.
The 3-day chick embryo consists of an embryonic disc from which numerous vessels emerge and return, forming a "figure 8"-shaped structure--the embryo in the center with vascular loops extending outward over both poles. […] Following a lag period of around 15 minutes, the constriction of continuity between capillary and secondary vessels, generally on the "venous" side, was observed. Continued pulsatile blood flow progressed, resulting in a "swelling" of the blind tube, followed by a pinching off of the remaining connection and formation of an enclosed vascular sac resembling a "blood island." This process progressed until only the largest vessels remained intact.

[2] = test system: Xenopus tadpole (stage 59-60); assay: Xenopus tadpole assay; type: in vivo, Xenopus laevis; settings: for pharmacologic similarity in tadpole assay: in vivo
[3] = test system: NHE3; settings: cited from earlier work
[4] = test system: human melanoma; assay: effect on growth of human melanoma (time course, apoptosis); type: cell-based

SMILES	Chick embryo diss. assay, Minimum Effective Concentration [1] [µg]	other results
CC(C)CCCC(C)[C@H]1CCC2C3CC[C@H]4C[C@@H](NCCCNCCCCN)CC[C@]4(C)C3CC[C@@]21C (stereo partly shown)	> 10	
CC(CCC(=O)O)[C@H]1CCC2C3CC[C@H]4C[C@H](NCCCNCCCCN)CC[C@]4(C)C3CC[C@@]21C (stereo partly shown)	> 10	
CC(CCC(=O)O)[C@H]1CCC2C3CC[C@H]4C[C@@H](NCCCNCCCCN)CC[C@]4(C)C3CC[C@@]21C (stereo partly shown)	0.001	
CC(C)CCCC(C)[C@H]1CCC2C3C(CC[C@@]21C)[C@@]1(C)CC[C@@H](NCCCNCCCCN)C[C@@H]1C[C@H]3O (stereo partly shown)	> 10	
CC(C)CCCC(C)[C@H]1CCC2C3C(CC[C@@]21C)[C@@]1(C)CC[C@H](NCCCNCCCCN)C[C@@H]1C[C@H]3O (stereo partly shown)	1 to 10	
COC(=O)CCC(C)[C@H]1CCC2C3C(CC[C@@]21C)[C@@]1(C)CC[C@H](NCCCNCCCCNCCCN)C[C@@H]1C[C@H]3O (stereo partly shown)	10	
CC(CCC(=O)O)[C@H]1CCC2C3C(CC[C@@]21C)[C@@]1(C)CC[C@H](NCCCNCCCCNCCCN)C[C@@H]1C[C@H]3O (stereo partly shown)	1	
COC(=O)CCC(C)[C@H]1CCC2C3C(CC[C@@]21C)[C@@]1(C)CC[C@H](NCCN)C[C@H]1C[C@H]3O (stereo partly shown)	> 1	
COC(=O)CCC(C)[C@H]1CCC2C3C(CC[C@@]21C)[C@@]1(C)CC[C@@H](NCCN)C[C@H]1C[C@H]3O (stereo partly shown)	0.01	
CC(CCC(=O)O)[C@H]1CCC2C3C(CC[C@@]21C)[C@@]1(C)CC[C@H](NCCCNCCCCN)C[C@@H]1C[C@H]3O (stereo partly shown)	> 10	
CC(C)CCCC(C)[C@H]1CCC2C3CC[C@H]4C[C@H](NCCCN5CCCCN=C5N)CC[C@]4(C)C3CC[C@@]21C (stereo partly shown)	> 10	
COC(=O)CCC(C)[C@H]1CCC2C3CC[C@H]4C[C@@H](NCCCNCCCCNCCCN)CC[C@]4(C)C3CC[C@@]21C (stereo partly shown)	> 1	
COC(=O)CCC(C)[C@H]1CCC2C3C[C@@H](O)[C@H]4C[C@@H](NCCCNCCCCNCCCN)CC[C@]4(C)C3CC[C@@]21C (stereo partly shown)	1	
COC(=O)CCC(C)[C@H]1CCC2C3C[C@@H](O)[C@H]4C[C@H](NCCN)CC[C@]4(C)C3CC[C@@]21C (stereo partly shown)	> 1	
COC(=O)CCC(C)[C@H]1CCC2C3C[C@@H](O)[C@H]4C[C@@H](NCCN)CC[C@]4(C)C3CC[C@@]21C (stereo partly shown)	> 1	
CC(CCC(=O)O)[C@H]1CCC2C3C[C@@H](O)[C@H]4C[C@@H](NCCN)CC[C@]4(C)C3CC[C@@]21C (stereo partly shown)	1	

SMILES	Chick embryo diss. assay, Minimum Effective Concentration [1] [µg]	other results
COC(=O)CCC(C)[C@H]1CCC2C3CC[C@@H]4C[C@H](NCCCNCCCCNCCCN)CC[C@]4(C)C3CC[C@@]21C (stereo partly shown)	> 1	
COC(=O)CCC(C)[C@H]1CCC2C3C(CC[C@@]21C)[C@@]1(C)CC[C@H](NCCCNCCCCNCCCN)C[C@H]1C[C@H]3O (stereo partly shown)	> 1	
CC(CCC(=O)O)[C@H]1CCC2C3C(CC[C@@]21C)[C@@]1(C)CC[C@@H](NCCCNCCCCNCCCN)C[C@H]1C[C@H]3O (stereo partly shown)	1	
CC(CCC(=O)O)[C@H]1CCC2C3C(CC[C@@]21C)[C@@]1(C)CC[C@H](NCCCNCCCCNCCCN)C[C@H]1C[C@H]3O (stereo partly shown)	> 1	
CC(CCC(=O)O)[C@H]1CCC2C3C(CC[C@@]21C)[C@@]1(C)CC[C@@H](NCCN)C[C@H]1C[C@H]3O (stereo partly shown)	> 1	
CC(CCC(=O)O)[C@H]1CCC2C3C(CC[C@@]21C)[C@@]1(C)CC[C@H](NCCN)C[C@H]1C[C@H]3O (stereo partly shown)	> 1	
COC(=O)CCC(C)[C@H]1CCC2C3CC[C@@H]4C[C@H](NCCN)CC[C@]4(C)C3C[C@H](O)[C@@]21C (stereo partly shown)	> 1	
CC(COS(=O)(=O)O)C(=O)CCC(C)[C@H]1CCC2C3C(CC[C@@]21C)[C@@]1(C)CC[C@H](NCCCNCCCCN)C[C@@H]1C[C@H]3O (stereo partly shown)	> 10	
CC(COS(=O)(=O)O)C(=O)CC[C@@H](C)[C@H]1CC[C@H]2[C@@H]3[C@H](O)C[C@H]4C[C@@H](NCCCNCCCCN)CC[C@]4(C)[C@H]3CC[C@]12C (single isomer, unassigned) [Compound 1360]		effect on vitelline capillaries / chick embryo [1]: the blood circulating through the embryonic vessels exhibited a brighter red color; tadpole response ([2]; 10 μg/ml, about 1 hour): Swelling and lysis of certain erythrocytes occurred; also recorded: extensive vasocclusion occurred within 60 minutes throughout the tail
N=C(N)NC(=O)c1nc(Cl)c(N)nc1N [Amiloride, amiloride]		effect on NHE3 kinetics (Km, Vmax) [3]: affected only Vmax
CC(C)CCC[C@@H](C)[C@H]1CC[C@H]2[C@@H]3CC[C@H]4C[C@@H](NCCCNCCCCNCCCN)CC[C@]4(C)[C@H]3CC[C@]12C [Compound 353]		effect on vitelline capillaries / chick embryo [1]: no effect on the chick embryo capillary bed; mechanism of cell death [4]: apoptotic cell death has been induced; time dependence of effect on growth of melanoma ([4]; FIG. 17A): most pronounced over 48 hours
COC(=O)CC[C@@H](C)[C@H]1CC[C@H]2[C@@H]3[C@H](O)C[C@@H]4C[C@@H](NCCCNCCCCNCCCN)CC[C@]4(C)[C@H]3CC[C@]12C [Compound 411]		vitelline capillary regression ([1]; 0.1 μg applied, 60 min): 0
C[C@H](CCC(=O)O)[C@H]1CC[C@H]2[C@@H]3[C@H](O)C[C@@H]4C[C@H](NCCN)CC[C@]4(C)[C@H]3CC[C@]12C [Compound 414]		pharmacologic similarity in tadpole assay [2]: pharmacologic activity similar to Fraction 1
C[C@H](CCC(=O)O)[C@H]1CC[C@H]2[C@@H]3[C@H](O)C[C@@H]4C[C@@H](NCCN)CC[C@]4(C)[C@H]3CC[C@]12C [Compound 415]		effect on vitelline capillaries / chick embryo [1]: especially active
CC(C)CCC[C@@H](C)[C@H]1CC[C@H]2[C@@H]3[C@H](O)C[C@H]4C[C@H](N)CC[C@]4(C)[C@H]3CC[C@]12C [Compound 1363]		pharmacologic similarity in tadpole assay [2]: pharmacologic activity similar to Fraction 1

— patent US5874597A, “Certain aminosterol compounds and pharmaceutical compositions including these compounds” (priority 1995, dated 1999)
